{"source": "paper PMC8944975", "about": "“Secretin Receptor as a Target in Gastrointestinal Cancer: Expression Analysis and Ligand Development” (Biomedicines, 2022)", "key": {"human SCTR": {"target": "human SCTR (Homo sapiens, UniProt P47872)", "sequence (P47872 23-440)": "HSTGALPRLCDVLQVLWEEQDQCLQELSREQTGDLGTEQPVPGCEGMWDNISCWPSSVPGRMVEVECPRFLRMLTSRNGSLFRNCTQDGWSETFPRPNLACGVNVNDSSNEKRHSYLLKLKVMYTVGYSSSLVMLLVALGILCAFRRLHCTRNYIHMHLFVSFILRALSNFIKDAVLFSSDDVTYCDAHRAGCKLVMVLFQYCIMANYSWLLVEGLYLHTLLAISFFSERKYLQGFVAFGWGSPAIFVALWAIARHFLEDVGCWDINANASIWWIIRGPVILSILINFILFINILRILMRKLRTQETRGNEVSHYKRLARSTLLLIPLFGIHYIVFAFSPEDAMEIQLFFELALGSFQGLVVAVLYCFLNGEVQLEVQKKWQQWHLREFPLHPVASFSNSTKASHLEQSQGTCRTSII", "test": "GloSensor cAMP assay, agonist mode", "assay_type": "cell-based", "design": "expressed in transfected cells", "settings": "GloSensor cAMP assay; at least 3 independent experiments in duplicates; read-out: cAMP Production, Intrinsic Activity", "procedure": "Analysis of downstream signaling of activated SCTR via Gαs G-protein subunits was performed by monitoring intracellular cAMP utilizing the GloSensor system (Promega, Walldorf, Germany) in accordance with the supplier protocol. Measurements were performed using the EnVision Analyzer (PerkinElmer, Rodgau, Germany). For evaluation, concentration–response curves (signal-to-noise ratios plotted) employing the derived statistical mean and SD for estimation of the respective EC50 were calculated using Spotfire Decision Site (TIBCO, Palo Alto, CA, USA). For the analysis of antagonists, a modified protocol was used. Treatment of cells and dilution of the potential antagonist was performed as previously described. Ligand dilutions were added to cells and incubated at room temperature for 5 min. Successively, secretin was added at a final concentration of 0.5 nM for an additional 15 min at room temperature. The emitted chemiluminescence, which correlates with the cAMP concentration, was detected with suitable filters. Evaluation of data was performed as previously described with a calculation of half-maximal inhibitory concentration (IC50)."}, "[1]": {"settings": "in vivo; cited from earlier work", "text": "Due to their vulnerability towards proteolytic degradation, most peptide hormones have short half-lives of only a few minutes. […] To chemically stabilize a peptide ligand by the introduction of artificial amino acids, the amino acid positions crucial for its activity need to be identified. The experimental strategy included design and synthesis of a library of secretin variants that would contain single amino acid substitutions as well as truncations on either end. To characterize a large number of individual peptides ..."}, "[2]": {"tested_on": "isolated pancreatic membranes", "settings": "cited from earlier work", "text": "(§1) Early studies of secretin had shown that its biological activity resides particularly in the amino terminus. […] Despite their lack of activation, these truncated peptides were able to displace native secretin at high concentrations."}, "[3]": {"target": "T1, human secretin receptor (SCTR) (human, UniProt P47872 23-440)", "T1 sequence (P47872 23-440)": "as above", "test": "radioligand binding; saturation binding of I^125-secretin on U2OS-SCTR membrane isolates; total, unspecific and specific binding"}, "SCTR": {"tested_on": "SCTR", "settings": "variant of rat secretin(5–27); cited from earlier work", "text": "as §1"}, "[4]": {"tested_on": "pancreatic secretion of both fluid and bicarbonate", "settings": "cited from earlier work", "text": "as §1"}, "[5]": {"target": "T1, human secretin receptor (SCTR)"}}, "note": "Where no end group is shown, it is not given here.", "data": [{"molecule": "CC(C)C[C@H](NC(=O)CNC(=O)[C@H](CCC(N)=O)NC(=O)[C@H](CC(C)C)NC(=O)[C@H](CC(C)C)NC(=O)[C@H](CCCNC(=N)N)NC(=O)[C@H](CCC(N)=O)NC(=O)[C@H](CC(C)C)NC(=O)[C@H](CCCNC(=N)N)NC(=O)[C@H](C)NC(=O)CNC(=O)[C@H](CCC(=O)O)NC(=O)[C@H](CCCNC(=N)N)NC(=O)[C@H](CC(C)C)NC(=O)[C@H](CCCNC(=N)N)NC(=O)[C@H](CO)NC(=O)[C@H](CC(C)C)NC(=O)[C@H](CCC(=O)O)NC(=O)[C@H](CO)NC(=O)[C@@H](NC(=O)[C@H](Cc1ccccc1)NC(=O)[C@@H](NC(=O)CNC(=O)[C@H](CC(=O)O)NC(=O)[C@H](CO)NC(=O)[C@@H](N)Cc1c[nH]cn1)[C@@H](C)O)[C@@H](C)O)C(=O)N[C@H](C(N)=O)C(C)C", "note": "[Peptide 1, reference compound]", "values": [{"measurement": "Emax", "setting": "human SCTR", "value": 100, "unit": "%"}, {"measurement": "half-life", "setting": "[1]", "value": "2.5 to 4", "unit": "min"}]}, {"molecule": "Secretin(2–27): N-terminally truncated secretin variant (amino acids 2–27) of the literature (SDGTFTSELSRLREGARLQRLLQGLV; ends and bridges not checked; UniProt P09683 29-54, looked up, fragment)", "values": [{"measurement": "effect on cAMP synthesis / agonistic effects, in words", "setting": "[2]", "value": "severe reduction on cAMP synthesis"}]}, {"molecule": "^125I-labelled W27, Y28-secretin (peptide)", "values": [{"measurement": "Kd", "setting": "[3]", "value": 0.074, "unit": "nM"}]}, {"molecule": "[I17, R25]-secretin(5–27)", "values": [{"measurement": "affinity", "setting": "SCTR", "value": 23, "unit": "nM"}]}, {"molecule": "[(CH2NH)4,5]secretin", "values": [{"measurement": "effect on pancreatic secretion, in words", "setting": "[4]", "value": "dose-dependently increased pancreatic secretion of both fluid and bicarbonate"}]}, {"molecule": "TSELSRLREGARLQRLLQGLV", "note": "[peptide 120, secretin(7–27)]", "values": [{"measurement": "cAMP production (GloSensor), agonist mode: EC50", "setting": "[5]", "value": 3370, "unit": "nM"}, {"measurement": "cAMP production (GloSensor), agonist mode: intrinsic activity [% of secretin]", "setting": "[5]", "value": 90.6, "unit": "%"}]}]}
